How the values were obtained:
retinal ganglion cells [1] = experiment: Partial optic nerve (ON) injury model, retinal ganglion cell count; type: in vivo, Sprague Dawley rats; settings: for RGC survival / protective effect: count at twelve days
Method: (§1) All procedures were conducted following AACUC protocols. Rats were anesthetized by intramuscular administration of Ketamine/Xylazine/Acepromazine/Saline cocktail, 5/2.5/1/1.5, milliliters respectively, at 1 ml/Kg.
Sprague Dawley rats weighing 300-350 g were used in this experiment. They were anesthetized with the above anesthetic cocktail and ON injury was applied. […] The tissues around the optic nerve were kept away from the optic nerve using jaw opening forceps. Calibrated forceps was put around the nerve about 3 to 4 mm from the globe and held for 30 seconds. The forceps were then removed, and the eyes treated with topical antibiotics at the site of incision. Drugs were then administered at selected doses via IP. Control animals received vehicle.
(§2) The effect of ON injury and elevated IOP on ganglion cells was determined by evaluating ganglion cell loss in whole mounted retinas. At the end of twelve days for ON injured and three months for COHT animals the ganglion cells were labeled by retrograde transport of Dextran Tetramethyl Rhodamine (DTMR, Molecular Probes, OR). […] A longitudinal cut (<1 mm) was made at about 3-4 mm distal from the globe. The optic nerve was sectioned and DTMR crystals were applied at the cut end. Twenty four hours after labeling the animals were euthanized and the eyes enucleated and fixed for 2 hours with 4% paraformaldehyde, then the retinas were removed and whole mounted. Cell counts were done using a Nikon microscope under fluorescent light with Rhodamine filter at 400×. Eight to sixteen regions were counted. Ganglion cell loss was calculated as percentage loss compared to unlasered control. Percent protection was calculated by comparing drug treated to vehicle treated eyes. Statistical analysis was done using two-tail student's t-test.

[2] = COHT model, ERG evaluation of retinal function; type: in vivo, Wistar rats; settings: topical 0.015% twice a day, at the end of 90 days
Method: (§3) Wistar rats weighing 400-475 grams were used. The rats were anesthetized and ocular hypertension was induced by laser photocoagulation of the outflow pathway (mainly episcleral and limbal veins) using a Coherent Argon Laser (Coherent Novus 2000). The number of spots was approximately 150 after two laser treatments with one week interval. IOP was measured using Tono-Pen XL (Mentor O&O). Measurements were done prior to laser treatments to determine baseline and subsequent readings were done weekly.
Electroretinographic evaluation of the retina was done only to OHT animals. The retinal function was measured 90 days after first laser treatment and prior retinal labeling. LKC system was used with the following parameters: low and high cut filters 0.3 and 500 Hz respectively, number of runs per sample were 10, flash intensity was −30, −20, −10 and −4 dB, Notch filter was off. Data analysis including OP's extraction from flash ERG was done using the system's software and noise was filtered prior calculation. Data represents the average of 5 animals.
At the end of 90 days retinal function was measured using electroretinography (ERG). […] Similarly the oscillatory potential responses were also preserved by prazosin treatment (FIG. 6).

[3] = Chronic ocular hypertension (COHT) model, IOP measurement; type: in vivo, Wistar rats; settings: topical 0.015% twice a day for 90 days, compared to vehicle treated eyes
Method: as §1, §3
In this model prazosin was tested after topical application of 0.015% twice a day for 90 days. […] The IOP level reached a steady state after 40 days and it was maintained for the rest of the experimental period.

retinal ganglion cells [4] = experiment: COHT model, retinal ganglion cell count; type: in vivo, Wistar rats
Method: as §3, §2

Compound: COc1cc2nc(N3CCN(C(=O)C4CCCO4)CC3)nc(N)c2cc1OC (stereo not drawn) [Terazosine, terazosin]
- RGC protection (retinal ganglion cells [1]; 0.1 μg/kg IP): Protection was observed
- RGC protection (retinal ganglion cells [1]; 1.0 μg/kg IP): maximum effect
- RGC survival / protective effect (retinal ganglion cells [1]; 10 μg/kg IP): no effect

Compound: COc1cc2nc(N3CCN(C(=O)c4ccco4)CC3)nc(N)c2cc1OC [Prazosine, prazosin]
- ERG A and B wave amplitudes [2]: In vehicle treated animals both A and B wave amplitudes were smaller than those treated with prazosin
- Oscillatory potential responses [2]: preserved
- Elevation of IOP [3]: attenuated the elevation of IOP
- RGC survival / protective effect (retinal ganglion cells [1]; 10 μg/kg IP): almost two fold increase in RGC survival
- Protection of RGC compared to vehicle treated group (retinal ganglion cells [4]; 0.015% topical, three months of IOP elevation): 46%
- RGC decrease (retinal ganglion cells [4]; 0.015% topical, three months of IOP elevation, loss compared to unlasered control): 20%

Compound: COc1ccccc1N1CCN(CCCNc2c(C)c(=O)n(C)c(=O)n2C)CC1 [5-methyl-Urapedil, 5-methylurapadil]
- RGC survival / protective effect (retinal ganglion cells [1]; 10 μg/kg IP): no protective effect

Compound: Brc1c(NC2=NCCN2)ccc2nccnc12 [Brimonidine, brimonidine]
- RGC survival / protective effect (retinal ganglion cells [1]; 100 μg/kg IP): protective action of Prazosine is similar to that of Brimonidine
- RGC protection in COHT model (comparison in words) (retinal ganglion cells [4]; dose not given): comparable to what we have observed with Brimonidine

— US20060264442A1, “Methods for the treatment of ocular and neurodegenerative conditions in a mammal” (Allergan, Inc., priority 2005, published 2006)
